# Where a SMILES comes first, the peptide text is derived from it. The star is where a group is joined. Myristoyl = CCCCCCCCCCCCCC(=O)*
# Key:
# [1] = test system: CD44^hiCD24^lo CSCs in MDA-MB-231 cells; assay: FACS analysis of CD44^hiCD24^lo cancer stem cells in MDA-MB-231 cells treated with P1 analogues; type: cell-based, human; conditions: 50 μM peptide, 48 hours, n = 1;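 for CD44^hiCD24^lo CSCs (%): CSC share is CD44hiCD24lo events over live Hoechst-negative cells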
# Protocol: Analogues of P1 (Table 6) were designed and synthesized in accordance with the procedure of Example 5. The ability of these analogues to inhibit cancer stem cells was determined using FACS analysis on MDA-MB-231 cells, which constitutively contain approximately 90% CD44^hiCD24^lo cancer stem cells, treated with the peptides.
# (§1) Non-adherent cells were removed during the washing steps.
# [2] = test system: PD-L1; assay: Immunofluorescence (confocal) of PD-L1 in MDA-MB-231 cells, Example 6; type: cell-based, human; conditions: 50 μM, 72 hours
# Protocol: (§2) Confocal laser scanning microscopy was employed to investigate the effect of P1, P2 and P3 (synthesized in accordance with Example 5) on the nuclear expression of PD-L1 and acetylated PD-L1 (PDL1-Ac) (FIG. 9).
# (§3) 1×10^4 MDA-MB-231 cells were seeded onto coverslips in 12 well plates with DMEM media overnight. Cells were treated with 50 μM P1, P2, P3 or P4 or vehicle (water) for 72 hours. Treated cells were fixed with 3.7% formaldehyde, and then permeabilised by incubating with 1% Triton X-100 for 20 min. Cells were then probed with a rabbit anti-PD-L1 antibody (Santa Cruz Biotechnology) or rabbit anti-acetylated PD-L1 (generated as described above) and visualized with a donkey anti-rabbit AF 488. Cover slips were mounted on glass microscope slides with ProLong Diamond Antifade reagent (Life Technologies). Protein targets were localized using confocal laser scanning microscopy. Single 0.5 μm sections were obtained using a Leica DMI8 microscope using 100× oil immersion lens running LAX software. The final image was obtained by averaging four sequential images of the same section. Digital images were analyzed using ImageJ software as described above.
# [3] = test system: acetylated PD-L1 and p300; assay: Colocalization (PCC(r)) of acetylated PD-L1 and p300 in MDA-MB-231 cells; type: cell-based, human; conditions: 50 μm
# Protocol: (§4) The effect of P1, P2, P3 and P4 (synthesized in accordance with Example 5) on p300 localization was examined using confocal laser scanning microscopy. […] Cover slips were mounted on glass microscope slides with ProLong Diamond Antifade reagent (Life Technologies). Protein targets were localized by confocal laser scanning microscopy as described above. TNFI and PCC(r) were calculated using ImageJ software as previously described.
# [4] = test system: SETDB1; assay: Immunofluorescence of SETDB1 in MDA-MB-231 cells; type: cell-based, human; conditions: 50 μM, 72 hours
# Protocol: (§5) Cells were treated with 50 μM P1, P2, P3 or P4 (synthesized in accordance with Example 5) or vehicle (water) for 72 hours. […] Confocal laser scanning microscopy was used to measure the […] and TCFI as described above. At least 20 individual cells were analyzed per sample.
# [5] = test system: DMNTI; assay: Immunofluorescence of DMNTI in MDA-MB-231 cells; type: cell-based, human; conditions: 50 μM, 72 hours
# Protocol: as §5
# [6] = test system: PD-L1 acetylated at lysine 263; assay: Immunofluorescence (confocal) of acetylated PD-L1 in MDA-MB-231 cells, Example 6; type: cell-based, human; conditions: 50 μM, 72 hours
# Protocol: as §2, §3
# [7] = target: T1, p300 (Homo sapiens, UniProt Q09472); assay: Immunofluorescence of p300 localization in MDA-MB-231 cells; type: cell-based; conditions: 50 μM
# T1 construct: endogenous in cells; host or cells: MDA-MB-231
# Protocol: as §4
# [8] = test system: MDA-MB-231 cells; type: cell-based, human; conditions: 50 μM peptide, 48 hours, n = 1;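 for COI, Live Single Cells (Cell Count): live means Hoechst-negative events among single cells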
# Excerpt: as §1
# [9] = test system: EHTM2; assay: Immunofluorescence of EHTM2 in MDA-MB-231 cells; type: cell-based, human; conditions: 50 μM, 72 hours
# Protocol: as §5
# [10] = test system: PD-L1; assay: PD-L1 in MDA-MB-231 mouse xenografts treated with abraxane or docetaxel; type: in vivo; conditions: 35 days, compared with untreated cells
# Protocol: The expression of PD-L1 in mouse MDA-MB-231 xenografts treated for 35 days with abraxane (60 mg/kg) or docetaxel (10 mg/kg) was investigated using confocal laser scanning microscopy.
# Five-week-old female nude mice were acquired and allowed to acclimatize for one week in the animal facility before experimentation. All experimental procedures were accessed and approved by The Australian National University Animal Experimental Ethics Committee (Ethics ID A2014/30). MDA-MB-231 human breast carcinoma cells were injected subcutaneously into the right mammary gland (2×10^6 cells in 1:1 PBS and BD Matrigel Matrix). Tumors were measured using external calipers and calculated using the modified ellipsoidal formula: […], where a=longest diameter and b=shortest diameter. Tumors were allowed to grow to around 50 mm^3 before commencing treatments (around 15 days). Abraxane (60 mg/kg) or Docetaxel (10 mg/kg) were administered by i.p. injection. Tumors were excised and collected in DMEM supplemented with 2.5% FCS. […] Digested tumors were spun and resuspended in DMEM, 2.5% FCS before being passed through a […] filter and PD-L1 nuclear localization was assessed using immunofluorescence microscopy as described supra.
# T1 sequence (Q09472 whole entry): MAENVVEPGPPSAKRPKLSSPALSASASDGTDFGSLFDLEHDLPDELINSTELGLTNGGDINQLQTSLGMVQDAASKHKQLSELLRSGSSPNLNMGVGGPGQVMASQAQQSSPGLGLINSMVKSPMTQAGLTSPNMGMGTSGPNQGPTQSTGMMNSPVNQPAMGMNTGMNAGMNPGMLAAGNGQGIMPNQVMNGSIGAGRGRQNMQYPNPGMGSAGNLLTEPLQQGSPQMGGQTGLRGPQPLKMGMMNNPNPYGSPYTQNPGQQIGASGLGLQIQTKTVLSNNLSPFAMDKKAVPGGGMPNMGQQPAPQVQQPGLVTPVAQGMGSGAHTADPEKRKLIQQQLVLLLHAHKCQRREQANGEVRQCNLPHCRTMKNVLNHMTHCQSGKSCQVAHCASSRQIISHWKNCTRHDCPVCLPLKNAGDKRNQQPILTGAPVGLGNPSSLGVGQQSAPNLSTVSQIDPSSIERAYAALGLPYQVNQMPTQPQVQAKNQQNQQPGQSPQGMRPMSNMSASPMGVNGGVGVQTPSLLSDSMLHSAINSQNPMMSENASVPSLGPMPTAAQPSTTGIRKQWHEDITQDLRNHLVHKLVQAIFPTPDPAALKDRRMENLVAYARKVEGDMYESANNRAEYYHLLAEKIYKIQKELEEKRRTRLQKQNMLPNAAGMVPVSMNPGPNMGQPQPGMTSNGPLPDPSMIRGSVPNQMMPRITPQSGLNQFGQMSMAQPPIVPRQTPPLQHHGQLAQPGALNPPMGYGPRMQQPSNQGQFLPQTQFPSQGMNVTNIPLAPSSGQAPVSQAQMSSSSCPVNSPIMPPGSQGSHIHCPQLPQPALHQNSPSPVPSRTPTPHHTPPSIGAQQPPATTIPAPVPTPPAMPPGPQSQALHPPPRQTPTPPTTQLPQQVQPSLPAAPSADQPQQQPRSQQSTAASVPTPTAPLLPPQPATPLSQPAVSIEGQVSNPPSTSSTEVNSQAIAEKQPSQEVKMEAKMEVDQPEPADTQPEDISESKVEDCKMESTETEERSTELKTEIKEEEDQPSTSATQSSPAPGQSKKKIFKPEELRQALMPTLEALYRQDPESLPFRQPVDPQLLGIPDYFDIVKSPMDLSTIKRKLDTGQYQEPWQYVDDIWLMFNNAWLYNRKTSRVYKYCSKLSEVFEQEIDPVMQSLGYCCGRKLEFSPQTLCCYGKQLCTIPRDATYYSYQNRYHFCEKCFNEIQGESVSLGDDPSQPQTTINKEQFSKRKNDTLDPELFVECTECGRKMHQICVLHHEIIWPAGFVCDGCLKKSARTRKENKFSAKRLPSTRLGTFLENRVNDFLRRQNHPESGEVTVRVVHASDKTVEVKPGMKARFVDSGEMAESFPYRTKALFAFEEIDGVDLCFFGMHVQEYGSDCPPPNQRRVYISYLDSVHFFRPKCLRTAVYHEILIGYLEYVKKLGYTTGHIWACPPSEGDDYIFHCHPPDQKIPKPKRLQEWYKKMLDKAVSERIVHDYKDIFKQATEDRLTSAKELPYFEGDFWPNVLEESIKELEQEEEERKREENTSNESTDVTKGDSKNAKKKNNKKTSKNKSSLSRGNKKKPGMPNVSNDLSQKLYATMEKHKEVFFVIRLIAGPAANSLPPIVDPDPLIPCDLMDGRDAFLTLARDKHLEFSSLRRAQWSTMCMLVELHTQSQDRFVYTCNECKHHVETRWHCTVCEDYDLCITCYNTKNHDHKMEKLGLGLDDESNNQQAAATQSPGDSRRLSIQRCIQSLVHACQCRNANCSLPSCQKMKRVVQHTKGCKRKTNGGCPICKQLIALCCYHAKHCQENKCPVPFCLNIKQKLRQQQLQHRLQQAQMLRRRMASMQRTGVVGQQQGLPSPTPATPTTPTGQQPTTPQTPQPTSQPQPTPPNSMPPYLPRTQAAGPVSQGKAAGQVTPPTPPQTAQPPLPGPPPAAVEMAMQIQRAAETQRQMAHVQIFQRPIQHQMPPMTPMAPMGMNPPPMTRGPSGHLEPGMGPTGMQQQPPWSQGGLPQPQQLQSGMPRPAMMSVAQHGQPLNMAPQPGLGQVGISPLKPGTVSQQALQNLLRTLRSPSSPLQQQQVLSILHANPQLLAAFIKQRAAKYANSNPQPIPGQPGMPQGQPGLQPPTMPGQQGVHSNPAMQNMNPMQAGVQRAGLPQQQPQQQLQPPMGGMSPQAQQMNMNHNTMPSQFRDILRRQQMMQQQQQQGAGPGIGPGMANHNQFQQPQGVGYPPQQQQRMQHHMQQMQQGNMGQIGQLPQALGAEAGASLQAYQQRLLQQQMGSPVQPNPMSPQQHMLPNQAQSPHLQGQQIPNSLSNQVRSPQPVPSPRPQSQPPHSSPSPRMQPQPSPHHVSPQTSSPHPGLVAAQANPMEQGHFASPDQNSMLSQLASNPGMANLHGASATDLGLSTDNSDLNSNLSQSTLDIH
p300 nuclear expression [7],SMILES,CD44^hiCD24^lo CSCs (%) [1] [%],"COI, Live Single CD44^hiCD24^lo CSCs (Cell Count) [1]",localization of PD-L1 [2],colocalization of acetylated PD-L1 and p300 [3],expression / nuclear localization of SETDB1 [4],expression / nuclear localization of DMNTI [5],localization of acetylated PD-L1 [6],COI (Cell Count) [8],"COI, Live Single Cells (Cell Count) [8]","COI, Single (Cell Count) [8]",Total Cell Count [8],expression / localization of EHTM2 [9],"PD-L1 in the nucleus of surviving, resistant xenograft cells [10]"
slightly decreased,"CCCCCCCCCCCCCC(=O)N[C@@H](Cc1ccccc1)C(=O)N[C@@H](CCCNC(=N)N)C(=O)N[C@@H](CC(C)C)C(=O)N[C@@H](CCCNC(=N)N)C(=O)N[C@@H](CCCCN)C(=O)NCC(=O)N[C@@H](CCCNC(=N)N)C(=O)N[C@@H](CCSC)C(=O)N[C@@H](CCSC)C(=O)N[C@@H](CC(=O)O)C(=O)N[C@H](C(=O)N[C@@H](CCCCN)C(=O)N[C@@H](CCCCN)C(N)=O)C(C)C [Peptide P4, Myristoyl-FRLRKGRMMDVKK-NH2] (Myristoyl-FRLRKGRMMDVKK-NH2)",87.66,3311,no effect,no effect,inhibited,inhibited,no effect,4910,3777,3903,7923,did not have a significant effect,
,CC(=O)O[C@@]12CO[C@@H]1C[C@H](O)[C@@]1(C)C(=O)[C@H](O)C3=C(C)[C@@H](OC(=O)[C@H](O)[C@@H](NC(=O)OC(C)(C)C)c4ccccc4)C[C@@](O)([C@@H](OC(=O)c4ccccc4)[C@H]21)C3(C)C [docetaxel],,,,,,,,,,,,,higher levels of PD-L1 in the nucleus

# — patent US20200339691A1, “PROTEINACEOUS MOLECULES AND USES THEREFOR” (priority 2018, published 2020)
